Measured values from publication PMC7970304, “The Effects of Apelin and Elabela Ligands on Apelin Receptor Distinct Signaling Profiles” (Frontiers in Pharmacology, 2021).

How the values were obtained:
Assay type in all cases: cell-based
[1] = test system: APJ–β-arrestin 1 interaction; test: BRET recruitment of β-arrestin 1 to APJ; conditions: for log (τ/KA) / Δlog (τ/KA): APJ-β-arrestin1; for log (τ/KA): Black–Leff operational model; for Δlog (τ/KA): relative to Apelin-13; for Bias factor / Log (Bias): APJ-β-arrestin1 over Ca2+, reference Apelin-13
Description: (§1) To detect the potencies of different peptide ligands for APJ in living cells, real-time kinetic bioluminescence resonance energy transfer (BRET) assays were carried out as follows. HEK293 cells were grown to 80–90% confluence in 24-well plates and transiently transfected with various Rluc-, EYFP-, or Venus-tagged constructs ([Chen et al., 2014]; [Liu et al., 2016]). Approximately 36 h after transfection, the long-acting luciferase substrate EnduRen (E6481, Promega, Beijing Biotech Co., Ltd.) was added to each well at a final concentration of 60 μM and cells were incubated for 2 h at 37°C in a 5% CO2 incubator. BRET experiments were carried out using a Mithras LB941 plate reader (Berthold Technologies, Bad Wildbad, Germany) with three filters: a Rluc filter (400–475 nm), a Venus filter (515–575 nm) and an EGFP filter (500–550 nm) ([Liu et al., 2016]; [Ji et al., 2017]). The BRET ratio was calculated as the ratio of the emission at 535 ± 30 nm to that at 485 ± 20 nm. The results are expressed as the mBRET (mBRET = 1,000 × BRET ratio) ([Pfleger et al., 2006a]; [Pfleger et al., 2006b]). We use high glucose as a negative control group.
(§2) HEK293 cells were transiently co-transfected with the designated Rluc and GFP2 or Venus or EYFP-labeled constructs. Twenty-four hours after transfection, the cells were harvested in phenol red free medium containing 5% FCS in HEPES buffer and seeded in 96 well white microplate coated with poly-D-lysine. After 24 h, cells were washed twice in PBS and re-suspended in PBS containing 0.5 mM MgCl2 and 0.1% glucose. Coelenterazine h substrate was added at a final concentration of 5 μM in the total volume of 50 μL/well. Kinetic-response and dose-response curve of the recruitment of GRKs or β-arrestin 1 and β-arrestin 2 or AP2 to the APJ by six peptides measured by BRET. […] The BRET signals between receptor and GRKs/β-arrestin1 and 2/AP2 were recorded at 10 min (GRK2/5) or 15 min (β-arrestin1 and) or 30 min (AP2) after agonist stimulation. We use high glucose as a control group. BRET assays were performed as described previously ([Xue et al., 2018]). […] This signal is defined as the ligand induced BRET ratio.
(§3) The concentration-response data for the ligands in various assays were analyzed to determine the biases of the ligands for G protein dependent signaling or β-arrestin dependent signaling, according to a previously published method ([Kenakin et al., 2012]; [Hager et al., 2016]; [Hothersall et al., 2017]). Briefly, the concentration-response data for each ligand were fitted to the Black–Leff operation model to obtain the values of τ and K A, using the following equation: Response=[A]^nτ^nEm/[A]^nτ^n+([A]KA)^n where [A] is the concentration of the agonist, E m is the maximal response of the system, n is the transducer slope, and K A and τ describe the affinity and efficacy of the agonist, respectively. In the data fitting, the reparametrized form of the equation proposed by [Kenakin et al. (2012)] was used: Response=Em/1+exp{nln[1+exp(β1)/[A]]−nβ2} where β 1 and β 2 are the natural logarithm of K A and τ, respectively, and E m was set to 1. Thus, for each concentration-response curve, a non-linear regression was performed to fit the above equation to give β 1 and β 2 (as well as n). Log (τ/K A) values (“transduction coefficients”) for each ligand vs. each pathway were obtained. […] The ΔΔlog (τ/K A), or Log (Bias), which is the logarithm of the bias factor for a given pathway over a reference pathway (here, intracellular calcium release), was calculated for each ligand as Δlog (τ/K A)–Δlog (τ/K A)Calcium. The 95% confidence interval (CI) was expressed as the mean ± standard error; Log (Bias) values, whose 95% CI crosses 0, were considered statistically insignificant.
(§4) The data were analyzed using GraphPad Prism v5.0. All the data are presented as the mean ± SEM.

[2] = test system: APJ–β-arrestin 2 interaction; test: BRET recruitment of β-arrestin 2 to APJ; conditions: for log (τ/KA): Black–Leff operational model; for Bias factor / Log (Bias): APJ-β-arrestin 2 over Ca2+, reference Apelin-13; for Log (Bias): footnote a = statistically insignificant
Description: as §1, §2, §3, §4

[3] = test system: APJ (Apelin receptor); ERK1/2 phosphorylation; test: ERK1/2 activation assay, Western blot; conditions: for Bias factor / Log (Bias): WB-ERK over Ca2+, reference Apelin-13; for Log (Bias): footnote a = statistically insignificant; for log (τ/KA) / Δlog (τ/KA): WB-ERK; for log (τ/KA): Black–Leff operational model; for Δlog (τ/KA): relative to Apelin-13
Description: HEK293 cells expressing APJ were spilt into 6-well plates at a density of 10^5 cells per well and cultured until reaching approximately 90% confluence. The cells were treated with different concentrations of peptide ligands (0.01–1,000 nM). The cells were washed twice with Phosphate-buffered saline (PBS) and lyzed in RIPA lysis buffer (50 mm Tris–HCl, pH 7.41, 50 mM NaCl, 1 mM EDTA, 10 mM MgCl2, 1 mM DTT, 1 mM PMSF, 1 μg/ml […], […]), 1.4 μg/ml […] and 0.5% (v/v) NP-40). After centrifugation at 14,000 rpm at 4°C for 30 min, the supernatant was collected and separated by 10% SDS-PAGE. Gel transfer takes about 60 min at 250 mA. The nitrocellulose membrane was sealed with 5% skim milk dissolved in 0.1% Triton X-100 of PBS. The primary ERK1/2 antibody was diluted with 5% bovine serum albumin (BSA) at 1:2,000, and the second antibody was diluted with 1:5,000. The ECL reagent was applied to the membrane. The films were scanned by Vanoscan Lide 700F scanner and analyzed by scion image software. The dose-response curve was fitted using the data detected at 5 min after stimulation.
as §3
The data were analyzed using GraphPad Prism v5.0. All the data are presented as the mean ± SEM. Differences between groups were compared by one-way analysis of variants (ANOVA), followed by post-hoc tests (Tukey’s test), When p < 0.05, the difference was considered significant. All experiments were repeated at least four times. The dose-response curves were generated using non-linear fitting model log (agonist) vs. response (three-parameters), with Hill Slope held to 1, i.e., Y = Bottom + (Top-Bottom)/(1 + 10^(LogEC50-X)).
FIGURE 4 Changes of ERK1/2 phosphorylation in HEK293 cells with stable expression of APJ: (A–F) after 5-min stimulation by the six agonists in different concentrations (0.01–1,000 nM) (G and H) ERK was measured after 5 or 15 min stimulation with six peptides at a concentration of 100 nM. Levels of p-ERK, total ERK were determined by Western blot. The data represent means ± SEM of four independent experiments.

In the case of `CSCC[C@H](NC(=O)[C@@H]1CSSC[C@H](NC(=O)[C@H](CC(N)=O)NC(=O)[C@H](Cc2c[nH]cn2)NC(=O)[C@H](CCCCN)NC(=O)[C@H](CCCNC(=N)N)NC(=O)[C@@H](N)CC(C)C)C(=O)N[C@@H](CC(C)C)C(=O)N[C@@H](CCC(N)=O)C(=O)N[C@@H](CCCNC(=N)N)C(=O)N[C@@H](CCCNC(=N)N)C(=O)N1)C(=O)N1CCC[C@H]1C(=O)N[C@@H](CC(C)C)C(=O)N[C@@H](Cc1c[nH]cn1)C(=O)N[C@@H](CO)C(=O)N[C@@H](CCCNC(=N)N)C(=O)N[C@H](C(=O)N1CCC[C@H]1C(=O)N[C@@H](Cc1ccccc1)C(=O)N1CCC[C@H]1C(=O)O)C(C)C` [Elabela-21], the “log (τ/KA)” value [1] is reported as −1.9 ± 0.1, the “Δlog (τ/KA)” value [1] is reported as 0.6 ± 0.1 and the Bias factor [1] is reported as 146.2. The “Log (Bias)” value [1] was 2.2 ± 0.2, the “log (τ/KA)” value ([2]; APJ-β-arrestin 2) was −2.1 ± 0.1 and the “Δlog (τ/KA)” value ([2]; APJ-β-arrestin 2, relative to Apelin-13) was 0.3 ± 0.1. For the same molecule, the Bias factor [2] was 73.6, the “Log (Bias)” value [2] was 1.9 ± 0.2 and the “ERK1/2 phosphorylation (in words)” value ([3]; 100 nM, 15 min) was “significantly higher than the activation of ERK1/2 by the other ligands”. The “bias over calcium release” value ([3]; ERK pathway) was 0.1 fold, the Bias factor [3] was 0.1 and the “Log (Bias)” value [3] was −1.0 ± 0.3. The “log (τ/KA)” value [3] was −2.5 ± 0.2 and the “Δlog (τ/KA)” value [3] was −2.6 ± 0.2.

In the case of `CSCC[C@H](NC(=O)[C@@H](NC(=O)[C@H](CC(C)C)NC(=O)[C@H](CC(N)=O)NC(=O)[C@@H](NC(=O)[C@@H]1CCCN1C(=O)[C@H](CCCNC(=N)N)NC(=O)[C@@H](N)CCC(N)=O)C(C)C)[C@@H](C)O)C(=O)N[C@@H](CCCNC(=N)N)C(=O)N[C@@H](CCCNC(=N)N)C(=O)N[C@@H](CCCCN)C(=O)N[C@@H](CC(C)C)C(=O)N[C@@H](CCCNC(=N)N)C(=O)N[C@@H](CCCCN)C(=O)N[C@@H](Cc1c[nH]cn1)C(=O)N[C@@H](CC(N)=O)C(=O)N[C@H]1CSSC[C@@H](C(=O)N[C@@H](CCSC)C(=O)N2CCC[C@H]2C(=O)N[C@@H](CC(C)C)C(=O)N[C@@H](Cc2c[nH]cn2)C(=O)N[C@@H](CO)C(=O)N[C@@H](CCCNC(=N)N)C(=O)N[C@H](C(=O)N2CCC[C@H]2C(=O)N[C@@H](Cc2ccccc2)C(=O)N2CCC[C@H]2C(=O)O)C(C)C)NC(=O)[C@H](CCCNC(=N)N)NC(=O)[C@H](CCCNC(=N)N)NC(=O)[C@H](CCC(N)=O)NC(=O)[C@H](CC(C)C)NC1=O` [Elabela-32], the “log (τ/KA)” value [1] is reported as −1.0 ± 0.1, the “Δlog (τ/KA)” value [1] is reported as 1.4 ± 0.1 and the Bias factor [1] is reported as 1978.4. For the same molecule, the “Log (Bias)” value [1] was 3.3, the “Log (Bias)” value ([1]; listed as ELA-32) was 3.3 ± 0.2 and the “bias over calcium release” value ([1]; APJ–β-arrestin 1) was > 1,500 fold. The “APJ–β-arrestin 1 BRET signal (in words)” value ([1]; dose-response, 15 min) was “significantly higher than those induced by the other peptide ligands”, the “log (τ/KA)” value ([2]; APJ-β-arrestin 2) was −0.4 ± 0.1 and the Bias factor [2] was 6,138.2. For the same molecule, the “Log (Bias)” value [2] was 3.8, the “Log (Bias)” value ([2]; listed as ELA-32) was 3.8 ± 0.2 and the “bias over calcium release” value ([2]; APJ–β-arrestin 2) was > 6,000 fold. For the same molecule, the Bias factor [3] was 3.0, the “Log (Bias)” value [3] was 0.5 ± 0.3 and the “log (τ/KA)” value [3] was −1.3 ± 0.2. For the same molecule, the “Δlog (τ/KA)” value [3] was −1.4 ± 0.2.
